Source: US11242337B2, “Compounds useful for treating gastrointestinal tract disorders” (Ardelyx, Inc., priority 2017, dated 2022)
Counter-ions that a name gives are not always drawn.

Legend:
NHE3 [1] = biological target: T1, NHE3 (Homo sapiens, UniProt P48764); test: Cell-based assay of NHE-3 activity (pre-incubation inhibition), human; conditions: human Preincubation; for pIC50: 0-30 μM test compound
T1 construct: expressed in transfected cells
T1 sequence (P48764 26-834): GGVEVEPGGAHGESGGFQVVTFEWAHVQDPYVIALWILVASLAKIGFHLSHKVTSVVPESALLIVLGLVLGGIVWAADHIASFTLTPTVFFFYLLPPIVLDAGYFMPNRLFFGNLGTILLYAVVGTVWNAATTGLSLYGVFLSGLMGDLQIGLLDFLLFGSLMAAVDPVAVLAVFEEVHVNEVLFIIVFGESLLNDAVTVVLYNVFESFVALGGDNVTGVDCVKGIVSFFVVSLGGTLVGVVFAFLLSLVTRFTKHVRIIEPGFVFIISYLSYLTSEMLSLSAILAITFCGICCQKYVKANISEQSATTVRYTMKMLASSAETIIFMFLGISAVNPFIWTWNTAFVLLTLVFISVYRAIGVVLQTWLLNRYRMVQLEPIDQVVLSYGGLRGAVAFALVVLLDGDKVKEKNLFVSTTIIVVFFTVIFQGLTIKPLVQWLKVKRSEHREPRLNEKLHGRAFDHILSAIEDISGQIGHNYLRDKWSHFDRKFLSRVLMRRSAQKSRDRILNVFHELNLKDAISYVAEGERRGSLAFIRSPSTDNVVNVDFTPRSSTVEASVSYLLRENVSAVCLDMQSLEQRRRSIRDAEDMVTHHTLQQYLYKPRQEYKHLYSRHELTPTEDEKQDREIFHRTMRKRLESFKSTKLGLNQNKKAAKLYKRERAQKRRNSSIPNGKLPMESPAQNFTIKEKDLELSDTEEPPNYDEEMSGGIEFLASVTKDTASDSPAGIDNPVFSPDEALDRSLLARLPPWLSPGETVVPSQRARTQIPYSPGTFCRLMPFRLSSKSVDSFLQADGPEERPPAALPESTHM
T1 sequence (Q99653 2-195 partner limits assumed): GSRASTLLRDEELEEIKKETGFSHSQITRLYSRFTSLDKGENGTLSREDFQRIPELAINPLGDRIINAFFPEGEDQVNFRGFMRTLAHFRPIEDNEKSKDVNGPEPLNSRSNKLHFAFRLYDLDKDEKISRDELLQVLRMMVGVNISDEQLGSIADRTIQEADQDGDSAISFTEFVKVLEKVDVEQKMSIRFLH
Experimental: Rat and human NHE-3-mediated Na^+-dependent H^+ antiport was measured using a modification of the pH sensitive dye method originally reported by Paradiso (Proc. Natl. Acad. Sci. USA. (1984) 81(23): 7436-7440). PS120 fibroblasts stably expressing human NHE3 and NHERF2 were obtained from Mark Donowitz (Baltimore, Md.). Opossum kidney (OK) cells were obtained from the ATCC and propagated per their instructions. The rat NHE-3 gene (GenBank M85300) was introduced into OK cells via electroporation, and cells were seeded into 96 well plates and grown overnight. Medium was aspirated from the wells then incubated for 30 min at 37° C. with NH4Cl-HEPES buffer (20 mM NH4Cl, 80 mM NaCl, 50 mM HEPES, 5 mM KCl, 2 mM CaCl2, 1 mM MgCl2, pH 7.4) containing 5 μM BCECF-AM. Cells were washed once with Ammonium free, Na^+-free HEPES (100 mM choline, 50 mM HEPES, 10 mM glucose, 5 mM KCl, 2 mM CaCl2, 1 mM MgCl2, pH 7.4) and incubated in the same buffer for 10 minutes at room temperature to lower intracellular pH with 0-30 μM test compound. […] Changes in intracellular pH were monitored using a FLIPR Tetra® (Molecular Devices, Sunnyvale, Calif.) by excitation at λex 439 to 505 nm, and measuring BCECF fluorescence at λem 538 nm. The initial rate of the fluorescence ratio change was used as a measure of NHE-mediated Na^+/H^+ activity, and reported as the change in fluorescence ratio per minute.

NHE3 [2] = biological target: T1, NHE3; test: Cell-based assay of NHE-3 activity (persistent inhibition), human; conditions: human Persistence, 60 min incubation then washout
Experimental: The ability of compounds to inhibit human and rat NHE-3-mediated Na^+ dependent H^+ antiport after application and washout was measured using a modification of the pH sensitive dye method described above. PS120 fibroblasts stably expressing human NHE3 and NHERF2 were obtained from Mark Donowitz (Baltimore, Md.). Opossum kidney (OK) cells were obtained from the ATCC and propagated per their instructions. The rat NHE-3 gene was introduced into OK cells via electroporation, and cells were seeded into 96 well plates and grown overnight. Medium was aspirated from the wells, cells were washed once with NaCl-HEPES buffer (100 mM NaCl, 50 mM HEPES, 10 mM glucose, 5 mM KCl, 2 mM CaCl2, 1 mM MgCl2, pH 7.4), then overlayed with NaCl-HEPES buffer containing 0-30 μM test compound. After a 60 min incubation at room temperature, the test drug containing buffer was aspirated from the cells. Following aspiration, cells were washed once with NaCl-HEPES buffer without drug, then incubated for 30 min at 37° C. with NH4Cl-HEPES buffer (20 mM NH4Cl, 80 mM NaCl, 50 mM HEPES, 5 mM KCl, 2 mM CaCl2, 1 mM MgCl2, pH 7.4) containing 5 μM BCECF-AM. Cells were washed once with Ammonium free, Na^+-free HEPES (100 mM choline, 50 mM HEPES, 10 mM glucose, 5 mM KCl, 2 mM CaCl2, 1 mM MgCl2, pH 7.4) and incubated in the same buffer for 10 minutes at room temperature to lower intracellular pH. NHE-3-mediated recovery of neutral intracellular pH was initiated (10 min after compound washout) by addition of Na-HEPES buffer. […] Changes in intracellular pH were monitored using a FLIPR Tetra® (Molecular Devices, Sunnyvale, Calif.) by excitation at λex 439 to 505 nm, and measuring BCECF fluorescence at λem 538 nm. The initial rate of the fluorescence ratio change was used as a measure of NHE-mediated Na^+/H^+ activity, and reported as the change in fluorescence ratio per minute.

| % inhibition (NHE3 [1]) | pIC50 (NHE3 [1]) | % inhibition (NHE3 [2]) | pIC50 (NHE3 [2]) | SMILES |
| --- | --- | --- | --- | --- |
| B (40-70%) | C (NHE3 pIC50 > 7) | B (40-70%) | C (NHE3 pIC50 > 7) | Cc1cc(S(=O)(=O)NCCOCCOCCNC(=O)NCCCCNC(=O)NCCOCCOCCNS(=O)(=O)c2ccc(O[C@H]3c4cc(Cl)cc(C#N)c4C[C@@H]3N(C)C)c(C)c2)ccc1O[C@H]1c2cc(Cl)cc(C#N)c2C[C@@H]1N(C)C [Example 18, 3-[2-(2-[2-[(4-[[(1S,2S)-6-Chloro-4-cyano-2-(dimethylamino)-2,3-dihydro-1H-inden-1-yl]oxy]-3-methylbenzene)sulfonamido]ethoxy]ethoxy)ethyl]-1-[4-([[2-(2-[2-[(4-[[(1S,2S)-6-chloro-4-cyano-2-(dimethylamino)-2,3-dihydro-1H-inden-1-yl]oxy]-3-methylbenzene)sulfonamido]ethoxy]ethoxy)ethyl]carbamoyl]amino)butyl]urea; bis(trifluoroacetic acid)] |
| A (NHE3 < 40%) | A (NHE3 pIC50 < 6) | A (NHE3 < 40%) | A (NHE3 pIC50 < 6) | Cc1cc(S(=O)(=O)NCCOCCOCCNC(=O)NCCCCNC(=O)NCCOCCOCCNS(=O)(=O)c2ccc(O[C@H]3c4cc(Cl)cc(C(F)(F)F)c4C[C@@H]3N(C)C)c(C)c2)ccc1O[C@H]1c2cc(Cl)cc(C(F)(F)F)c2C[C@@H]1N(C)C [Example 19, 3-[2-(2-[2-[(4-[[(1S,2S)-6-Chloro-2-(dimethylamino)-4-(trifluoromethyl)-2,3-dihydro-1H-inden-1-yl]oxy]-3-methylbenzene)sulfonamido]ethoxy]ethoxy)ethyl]-1-[4-([[2-(2-[2-[(4-[[(1S,2S)-6-chloro-2-(dimethylamino)-4-(trifluoromethyl)-2,3-dihydro-1H-inden-1-yl]oxy]-3-methylbenzene)sulfonamido]ethoxy]ethoxy)ethyl]carbamoyl]amino)butyl]urea] |
| A (NHE3 < 40%) | A (NHE3 pIC50 < 6) | A (NHE3 < 40%) | A (NHE3 pIC50 < 6) | Cc1cc(S(=O)(=O)NCCOCCOCCNC(=O)NCCCCNC(=O)NCCOCCOCCNS(=O)(=O)c2ccc(O[C@H]3c4cc(Cl)cc(OC(F)(F)F)c4C[C@@H]3N(C)C)c(C)c2)ccc1O[C@H]1c2cc(Cl)cc(OC(F)(F)F)c2C[C@@H]1N(C)C [Example 20, 1-[2-(2-[2-[(4-[[(1S,2S)-6-Chloro-2-(dimethylamino)-4-(trifluoromethoxy)-2,3-dihydro-1H-inden-1-yl]oxy]-3-methylbenzene)sulfonamido]ethoxy]ethoxy)ethyl]-3-[4-([[2-(2-[2-[(4-[[(1S,2S)-6-chloro-2-(dimethylamino)-4-(trifluoromethoxy)-2,3-dihydro-1H-inden-1-yl]oxy]-3-methylbenzene)sulfonamido]ethoxy]ethoxy)ethyl]carbamoyl]amino)butyl]urea] |
| A (NHE3 < 40%) | C (NHE3 pIC50 > 7) | C (>70%) | A (NHE3 pIC50 < 6) | COc1cc(Cl)cc2c1C[C@H](N(C)C)[C@H]2Oc1ccc(S(=O)(=O)NCCOCCOCCNC(=O)NCCCCNC(=O)NCCOCCOCCNS(=O)(=O)c2ccc(O[C@H]3c4cc(Cl)cc(OC)c4C[C@@H]3N(C)C)c(C)c2)cc1C [Example 21, 3-[2-(2-[2-[(4-[[(1S,2S)-6-Chloro-2-(dimethylamino)-4-methoxy-2,3-dihydro-1H-inden-1-yl]oxy]-3-methylbenzene)sulfonamido]ethoxy]ethoxy)ethyl]-1-[4-([[2-(2-[2-[(4-[[(1S,2S)-6-chloro-2-(dimethylamino)-4-methoxy-2,3-dihydro-1H-inden-1-yl]oxy]-3-methylbenzene)sulfonamido]ethoxy]ethoxy)ethyl]carbamoyl]amino)butyl]urea; bis(trifluoroacetic acid)] |
| C (>70%) | C (NHE3 pIC50 > 7) | C (>70%) | C (NHE3 pIC50 > 7) | Cc1cc(S(=O)(=O)NCCOCCOCCNC(=O)NCCCCNC(=O)NCCOCCOCCNS(=O)(=O)c2ccc(O[C@H]3c4cc(Cl)cc(Cl)c4C[C@@H]3N(C)C)c(C)c2)ccc1O[C@H]1c2cc(Cl)cc(Cl)c2C[C@@H]1N(C)C [Example 22, 3-[2-(2-[2-[(4-[[(1S,2S)-4,6-Dichloro-2-(dimethylamino)-2,3-dihydro-1H-inden-1-yl]oxy]-3-methylbenzene)sulfonamido]ethoxy]ethoxy)ethyl]-1-[4-([[2-(2-[2-[(4-[[(1S,2S)-4,6-dichloro-2-(dimethylamino)-2,3-dihydro-1H-inden-1-yl]oxy]-3-methylbenzene)sulfonamido]ethoxy]ethoxy)ethyl]carbamoyl]amino)butyl]urea dihydrochloride] |
| C (>70%) |  | C (>70%) |  | CN(C)[C@@H]1CCCN([C@H]2Cc3c(Cl)cc(Cl)cc3[C@@H]2Oc2ccc(S(=O)(=O)NCCOCCOCCNC(=O)NCCCCNC(=O)NCCOCCOCCNS(=O)(=O)c3ccc(O[C@H]4c5cc(Cl)cc(Cl)c5C[C@@H]4N4CCC[C@@H](N(C)C)C4)cc3)cc2)C1 [Example 25] |
| B (40-70%) | C (NHE3 pIC50 > 7) | B (40-70%) | C (NHE3 pIC50 > 7) | CN(C)[C@H]1Cc2c(C#N)cc(Cl)cc2[C@@H]1Oc1ccc(S(=O)(=O)NCCOCCOCCNC(=O)NCCCCNC(=O)NCCOCCOCCNS(=O)(=O)c2ccc(O[C@H]3c4cc(Cl)cc(C#N)c4C[C@@H]3N(C)C)c(F)c2)cc1F [Example 37, 3-[2-(2-[2-[(4-[[(1S,2S)-6-Chloro-4-cyano-2-(dimethylamino)-2,3-dihydro-1H-inden-1-yl]oxy]-3-fluorobenzene)sulfonamido]ethoxy]ethoxy)ethyl]-1-[4-([[2-(2-[2-[(4-[[(1S,2S)-6-chloro-4-cyano-2-(dimethylamino)-2,3-dihydro-1H-inden-1-yl]oxy]-3-fluorobenzene)sulfonamido]ethoxy]ethoxy)ethyl]carbamoyl]amino)butyl]urea] |
